Test results taken from the supplement of paper PMC10307832.

Legend:
Assay in all cases: relative viability (nuclei count vs DMSO), 5 days (fraction); higher = more cells survive
[1] = compound: Cc1ccc(NC(=O)c2ccc(CN3CCN(C)CC3)cc2)cc1Nc1nc(-c2cccnc2)cs1 [Masitinib] + CC(=O)c1c(C)c2cnc(Nc3ccc(N4CCNCC4)cn3)nc2n(C2CCCC2)c1=O [Palbociclib] (partner 0.5 µM)
Outline: (§1)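 Lung cancer cell lines in 1536-well plates got either a single drug or a fixed anchor-drug dose together with five library-drug doses (not always all listed) in √10 steps, by pin tool, on the day after seeding. Nuclei were counted after 5 days, and relative viability is the treated-to-vehicle ratio of nuclei counts. Values are medians of duplicate plates.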

[2] = compound: Cc1ccc(NC(=O)c2ccc(CN3CCN(C)CC3)cc2)cc1Nc1nc(-c2cccnc2)cs1 [Masitinib] + Cc1cc(Nc2cc(N3CCN(C)CC3)nc(Sc3ccc(NC(=O)C4CC4)cc3)n2)n[nH]1 [Tozasertib] (partner 0.1 µM)
Outline: as §1

[3] = compound: Cc1ccc(NC(=O)c2ccc(CN3CCN(C)CC3)cc2)cc1Nc1nc(-c2cccnc2)cs1 [Masitinib] + Cc1nc(NC(=O)N2CCC[C@H]2C(N)=O)sc1-c1ccnc(C(C)(C)C(F)(F)F)c1 [Alpelisib] (partner 2 µM)
Outline: as §1

[4] = compound: Cc1ccc(NC(=O)c2ccc(CN3CCN(C)CC3)cc2)cc1Nc1nc(-c2cccnc2)cs1 [Masitinib] + N=C(N)NC(=N)NCCc1ccccc1 [Phenformin] (partner 250 µM)
Outline: as §1

Cell Line	relative viability ([1]; first compound 0.01 µM)	relative viability ([1]; first compound 0.03162 µM)	relative viability ([1]; first compound 0.1 µM)	relative viability ([1]; first compound 0.3162 µM)	relative viability ([1]; first compound 1 µM)	relative viability ([2]; first compound 0.01 µM)	relative viability ([2]; first compound 0.03162 µM)	relative viability ([2]; first compound 0.1 µM)	relative viability ([2]; first compound 0.3162 µM)	relative viability ([2]; first compound 1 µM)	relative viability ([3]; first compound 0.01 µM)	relative viability ([3]; first compound 0.03162 µM)	relative viability ([3]; first compound 0.1 µM)	relative viability ([3]; first compound 0.3162 µM)	relative viability ([3]; first compound 1 µM)	relative viability ([4]; first compound 0.01 µM)	relative viability ([4]; first compound 0.03162 µM)	relative viability ([4]; first compound 0.1 µM)	relative viability ([4]; first compound 0.3162 µM)	relative viability ([4]; first compound 1 µM)
NCI-H23	0.439	0.482	0.598	0.575	0.527	0.336	0.313	0.4	0.223	0.263	0.639	0.49	0.659	0.579	0.669	0.846	0.734	0.881	0.781	0.748
NCI-H322M	0.483	0.487	0.426	0.531	0.454	0.452	0.513	0.485	0.449	0.467	0.782	0.778	0.932	0.763	0.793	0.789	0.799	0.741	0.75	0.715
NCI-H358	0.123	0.138	0.15	0.133	0.136	0.118	0.0987	0.114	0.113	0.104	0.734	0.802	0.813	0.788	0.852	0.316	0.346	0.359	0.363	0.327
NCI-H441	0.232	0.211	0.262	0.188	0.191	0.67	0.571	0.637	0.7	0.473	0.675	0.822	0.873	0.703	0.653	0.654	1.05	0.837	0.94	0.843
NCI-H460	0.0985	0.105	0.14	0.071	0.126	0.288	0.4	0.313	0.0644	0.168	0.479	0.522	0.521	0.429	0.471	0.482	0.586	0.508	0.457	0.503
NCI-H520	0.27	0.21	0.263	0.243	0.197	0.368	0.476	0.566	0.451	0.358	0.914		0.966	0.826	1.02	0.633	0.648	0.664	0.584	0.457
NCI-H647	0.419	0.369	0.49	0.325	0.375	0.212	0.209	0.394	0.261	0.232	1.08	1.26	1.19	1.28	1.1	0.549	0.521	0.526	0.57	0.584
NCI-H650	0.33	0.332	0.331	0.318	0.318	0.642	0.732	0.717	0.745	0.665	1.14	1.03	1.17	1.31	1.08	0.508	0.428	0.514	0.303	0.425
NCI-H661	0.331	0.374	0.363	0.372	0.377	0.338	0.372	0.344	0.342	0.363	0.748	0.577	0.623	0.384	0.47	0.267	0.286	0.254	0.26	0.267
NCI-H727	0.599	0.692	0.668	0.621	0.618	0.691	0.597	0.69	0.664	0.548	0.652	0.657	0.517	0.603	0.74	0.641	0.636	0.5	0.616	0.44
NCI-H838	0.205	0.182	0.22	0.192	0.244	0.25	0.281	0.273	0.206	0.236	0.912	0.865	0.992	0.769	0.957	0.45	0.498	0.521	0.508	0.569
NCI-H1355	0.37	0.601	0.4	0.292	0.343	0.534	0.469	0.561	0.384	0.394	0.857	0.707	0.938	0.668	0.731	0.462	0.384	0.478	0.379	0.406
NCI-H1395	0.593	0.653	0.643	0.562	0.595	0.713	0.678	0.828	0.782	0.624	1.12	1.01	1.1	1.16	1.09	0.42	0.442	0.473	0.47	0.424
NCI-H1437	0.25	0.32	0.248	0.302	0.305	0.399	0.454	0.4	0.426	0.36	0.918	0.979	1.01	1.08	0.962	0.249	0.297	0.25	0.294	0.329
NCI-H1651	0.388	0.505	0.419	0.535	0.523	0.743	0.68	0.685	0.484	0.583	0.841	1.01	0.99	0.947	1	0.341	0.29	0.337	0.375	0.31
NCI-H1666	0.665	0.63	0.696	0.628	0.617		0.495	0.586	0.58	0.585	0.92	1.05	0.943	0.706	0.99		0.527	0.637	0.487	0.56
NCI-H1734	0.362	0.327	0.393	0.394	0.335	0.285	0.27	0.318	0.276	0.272	0.616	0.715	0.764	0.383	0.658	0.423	0.423	0.493	0.379	0.339

Cell Line	relative viability ([1]; first compound 0.01 µM)	relative viability ([1]; first compound 0.03162 µM)	relative viability ([1]; first compound 0.1 µM)	relative viability ([1]; first compound 0.3162 µM)	relative viability ([1]; first compound 1 µM)	relative viability ([2]; first compound 0.01 µM)	relative viability ([2]; first compound 0.03162 µM)	relative viability ([2]; first compound 0.1 µM)	relative viability ([2]; first compound 0.3162 µM)	relative viability ([2]; first compound 1 µM)	relative viability ([3]; first compound 0.01 µM)	relative viability ([3]; first compound 0.03162 µM)	relative viability ([3]; first compound 0.1 µM)	relative viability ([3]; first compound 0.3162 µM)	relative viability ([3]; first compound 1 µM)	relative viability ([4]; first compound 0.01 µM)	relative viability ([4]; first compound 0.03162 µM)	relative viability ([4]; first compound 0.1 µM)	relative viability ([4]; first compound 0.3162 µM)	relative viability ([4]; first compound 1 µM)
NCI-H1755	0.428	0.474	0.448	0.491	0.402		0.573	0.57	0.57	0.454		0.847	1.01	0.972	0.833		0.51	0.545	0.597	0.581
NCI-H1793	0.282	0.279	0.348	0.303	0.259	0.337	0.309	0.33	0.238	0.256	0.846	0.683	0.878	0.82	0.636	0.329	0.357	0.405	0.349	0.262
NCI-H1915		0.518		0.536	0.642		0.453		0.44	0.387		1.06	1.07	1.04	1.07		0.367		0.401	0.349
NCI-H1944		0.295		0.312	0.307		0.214		0.205	0.247		0.78	0.925	0.699	0.84		0.196		0.196	0.186
NCI-H1975	0.424	0.517	0.468	0.399	0.587	0.764	0.609	0.609		0.263	0.62	0.622	0.684	0.602	0.604	0.405	0.402	0.422		0.408
NCI-H1993	0.674	0.527	0.536	0.516	0.654	0.519	0.554	0.547	0.593	0.498	0.669		0.627	0.728	0.636	0.5	0.469	0.603	0.523	0.451
NCI-H2009	0.207	0.214	0.236	0.17	0.204	0.762	0.71	0.744	0.817	0.658	1.15	1.12	1.24	1.16	1.18	0.434	0.48	0.463	0.427	0.381
NCI-H2023	0.311	0.385	0.323	0.259	0.331	0.327	0.356	0.279	0.184	0.189	0.581	0.62	0.6	0.518	0.548	0.409	0.371	0.397	0.429	0.317
NCI-H2085	0.432	0.493	0.486	0.491	0.459	0.691	0.779	0.865	0.479	0.663	0.838	1	1.09	0.935	0.985	0.631	0.717	0.771	0.778	0.657
NCI-H2087	0.211	0.221	0.234	0.198	0.237	0.317	0.22	0.239	0.211	0.236	1.07	1.05	1.19	1.15	1.08	0.347	0.393	0.534	0.5	0.393
NCI-H2126	0.33	0.341	0.376	0.337	0.379	0.938	0.819	0.926	0.627	0.828	0.802	0.766	0.832	0.661	0.712	0.515	0.548	0.552	0.507	0.503
NCI-H2170	0.383	0.331	0.438	0.403	0.417	0.778	0.685	0.746	0.739	0.671	0.912	0.688	0.902	0.784	0.801	0.354	0.396	0.386	0.386	0.378
NCI-H2228	0.518	0.723	1.12	0.844	0.486	0.242	0.199	0.232	0.217	0.221	0.897	0.708	0.835	0.685	0.844	0.347	0.302	0.335	0.398	0.215
NCI-H2347	0.381	0.389	0.408	0.422	0.444	0.379	0.457	0.536	0.563	0.394	0.981	1.14	1.01	1.13	1.05	0.391	0.402	0.333	0.374	0.327
NCI-H2405	0.48	0.504	0.508	0.499	0.514	0.759	0.729	0.725	0.631	0.635	0.838	0.945	0.896	0.737	0.802	0.379	0.366	0.399	0.459	0.247
NCI-H3122	0.163	0.197	0.227	0.18	0.175		0.502		0.387	0.417	0.87	0.758	0.785	0.899	0.821		0.396		0.315	0.312
